According to US5668152A, “Protein kinase C inhibitors” (priority 1995, dated 1997):

Assays:
protein kinase C alpha = protein kinase C alpha (Homo sapiens, UniProt P17252); assay: PKC Enzyme assay, alpha isozyme; format: biochemical; settings: PKC alpha; 30 μM ATP, 30° C., 10 minutes; read-out: IC50 α
Protocol: (§1) PKC enzymes=alpha, beta I, beta II, gamma, delta, epsilon, eta and zeta.
(§2) Assay components in a total volume of 250 μL are the following:
(§3) Vesicles consisting of 120 μg/mL phosphatidylserine (Avanti Polar Lipids) and sufficient diacylglycerol (Avanti Polar Lipids) to activate the enzyme to maximum activity in 20 mM HEPES buffer (Sigma, St. Louis, Mo.), pH 7.5, 940 μM calcium chloride (Sigma, St. Louis, Mo.) for assaying the alpha, beta I, beta II and gamma enzyme only, 1 mM EGTA for all the enzymes, 10 mM magnesium chloride (Sigma, St. Louis, Mo.) and 30 μM (gamma-32P) ATP (DuPont). For all the enzymes either histone type HL (Worthington) or myelin basic protein is used as substrate. The assay is started by addition of protein kinase C enzyme incubated at 30° C. for 10 minutes and stopped by adding 0.5 mL of cold trichloroacetic acid (Amresco) followed by 100 μL of 1 mg/mL bovine serum albumin (Sigma, St. Louis, Mo.). The precipitate is collected by vacuum filtration on glass fiber filters employing a TOMTEC™ filtration system and quantified by counting in a beta scintillation counter.

protein kinase C beta-1 = protein kinase C beta-1 (Homo sapiens, UniProt P05771); assay: PKC Enzyme assay, beta I isozyme; format: biochemical; settings: PKC beta-1; 30 μM ATP, 30° C., 10 minutes; read-out: IC50 β1
Protocol: as §1, §2, §3

protein kinase C beta-2 = protein kinase C beta-2 (Homo sapiens, UniProt P05771); assay: PKC Enzyme assay, beta II isozyme; format: biochemical; settings: PKC beta-2; 30 μM ATP, 30° C., 10 minutes; read-out: IC50 β2
Protocol: as §1, §2, §3

protein kinase C gamma = protein kinase C gamma (Homo sapiens, UniProt P05129); assay: PKC Enzyme assay, gamma isozyme; format: biochemical; settings: PKC gamma; 30 μM ATP, 30° C., 10 minutes; read-out: IC50 γ
Protocol: as §1, §2, §3

protein kinase C delta = protein kinase C delta (Homo sapiens, UniProt Q05655); assay: biochemical; settings: PKC delta; 30 μM ATP, 30° C., 10 minutes; read-out: IC50 δ
Protocol: as §1, §2, §3

protein kinase C epsilon = biological target: T1, protein kinase C epsilon (Homo sapiens, UniProt Q02156); assay: PKC Enzyme assay, epsilon isozyme; format: biochemical; settings: PKC epsilon; 30 μM ATP, 30° C., 10 minutes; read-out: IC50 ε
T1 sequence (Q02156 1-737): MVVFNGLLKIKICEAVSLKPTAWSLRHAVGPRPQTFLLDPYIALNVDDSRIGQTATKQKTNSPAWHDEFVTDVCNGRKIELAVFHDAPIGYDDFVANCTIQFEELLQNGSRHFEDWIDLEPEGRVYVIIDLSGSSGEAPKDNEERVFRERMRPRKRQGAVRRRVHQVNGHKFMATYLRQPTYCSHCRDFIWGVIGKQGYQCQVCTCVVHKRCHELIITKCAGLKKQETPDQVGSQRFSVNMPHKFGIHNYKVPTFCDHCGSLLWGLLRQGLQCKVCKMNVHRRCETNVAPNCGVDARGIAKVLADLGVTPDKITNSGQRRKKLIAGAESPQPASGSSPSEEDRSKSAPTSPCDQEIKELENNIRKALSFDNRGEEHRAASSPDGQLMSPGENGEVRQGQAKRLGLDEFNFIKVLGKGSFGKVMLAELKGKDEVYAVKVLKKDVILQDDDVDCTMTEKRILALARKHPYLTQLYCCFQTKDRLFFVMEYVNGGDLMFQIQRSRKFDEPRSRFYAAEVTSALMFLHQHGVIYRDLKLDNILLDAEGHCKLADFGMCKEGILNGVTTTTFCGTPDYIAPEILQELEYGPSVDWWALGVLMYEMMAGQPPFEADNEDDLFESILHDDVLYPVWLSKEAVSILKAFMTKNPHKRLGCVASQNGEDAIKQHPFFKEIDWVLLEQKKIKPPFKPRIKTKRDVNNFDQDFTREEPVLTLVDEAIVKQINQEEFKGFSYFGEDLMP
Protocol: as §1, §2, §3

protein kinase C zeta = biological target: T2, protein kinase C zeta (Homo sapiens, UniProt Q05513); assay: PKC Enzyme assay, zeta isozyme; format: biochemical; settings: PKC zeta; 30 μM ATP, 30° C., 10 minutes; read-out: IC50 ζ
T2 sequence (Q05513 1-592): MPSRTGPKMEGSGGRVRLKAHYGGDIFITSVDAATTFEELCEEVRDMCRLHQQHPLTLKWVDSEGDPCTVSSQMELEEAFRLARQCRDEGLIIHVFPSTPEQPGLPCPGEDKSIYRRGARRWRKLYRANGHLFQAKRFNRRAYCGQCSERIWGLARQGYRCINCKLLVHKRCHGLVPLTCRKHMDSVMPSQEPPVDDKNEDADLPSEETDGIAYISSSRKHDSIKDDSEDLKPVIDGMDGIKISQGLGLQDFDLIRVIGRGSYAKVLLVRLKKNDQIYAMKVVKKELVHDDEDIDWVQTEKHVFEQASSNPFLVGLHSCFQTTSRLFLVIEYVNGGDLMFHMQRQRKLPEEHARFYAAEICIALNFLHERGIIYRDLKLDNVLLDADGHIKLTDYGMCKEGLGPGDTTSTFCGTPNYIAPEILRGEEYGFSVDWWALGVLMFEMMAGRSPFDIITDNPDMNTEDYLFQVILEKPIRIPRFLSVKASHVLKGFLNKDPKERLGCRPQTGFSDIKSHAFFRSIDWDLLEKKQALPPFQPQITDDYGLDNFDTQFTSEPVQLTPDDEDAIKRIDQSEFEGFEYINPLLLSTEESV
Protocol: as §1, §2, §3

protein kinase C eta = protein kinase C eta (Homo sapiens, UniProt P24723); assay: PKC Enzyme assay, eta isozyme; format: biochemical; settings: PKC eta; 30 μM ATP, 30° C., 10 minutes; read-out: IC50 η
Protocol: as §1, §2, §3

protein kinase C beta-1, sequence (P05771 whole entry): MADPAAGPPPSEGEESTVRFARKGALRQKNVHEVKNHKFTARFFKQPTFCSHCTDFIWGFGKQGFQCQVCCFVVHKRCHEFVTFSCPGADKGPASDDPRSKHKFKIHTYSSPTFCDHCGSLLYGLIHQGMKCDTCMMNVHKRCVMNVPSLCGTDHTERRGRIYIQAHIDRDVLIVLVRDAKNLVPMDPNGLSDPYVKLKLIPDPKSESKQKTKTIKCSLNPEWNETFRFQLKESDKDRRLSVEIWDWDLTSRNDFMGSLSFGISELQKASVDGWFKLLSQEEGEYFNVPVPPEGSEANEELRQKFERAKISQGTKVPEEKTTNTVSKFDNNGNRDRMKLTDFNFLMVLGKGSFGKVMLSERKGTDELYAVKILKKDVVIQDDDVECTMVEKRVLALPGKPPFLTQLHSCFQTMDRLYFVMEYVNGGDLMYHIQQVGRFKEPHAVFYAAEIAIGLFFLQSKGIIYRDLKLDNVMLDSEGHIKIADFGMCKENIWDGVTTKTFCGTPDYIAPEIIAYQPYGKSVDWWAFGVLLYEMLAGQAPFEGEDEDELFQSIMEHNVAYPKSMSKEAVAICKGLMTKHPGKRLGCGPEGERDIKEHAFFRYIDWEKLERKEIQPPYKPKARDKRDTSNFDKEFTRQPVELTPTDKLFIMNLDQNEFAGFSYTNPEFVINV
protein kinase C delta, sequence (Q05655 whole entry): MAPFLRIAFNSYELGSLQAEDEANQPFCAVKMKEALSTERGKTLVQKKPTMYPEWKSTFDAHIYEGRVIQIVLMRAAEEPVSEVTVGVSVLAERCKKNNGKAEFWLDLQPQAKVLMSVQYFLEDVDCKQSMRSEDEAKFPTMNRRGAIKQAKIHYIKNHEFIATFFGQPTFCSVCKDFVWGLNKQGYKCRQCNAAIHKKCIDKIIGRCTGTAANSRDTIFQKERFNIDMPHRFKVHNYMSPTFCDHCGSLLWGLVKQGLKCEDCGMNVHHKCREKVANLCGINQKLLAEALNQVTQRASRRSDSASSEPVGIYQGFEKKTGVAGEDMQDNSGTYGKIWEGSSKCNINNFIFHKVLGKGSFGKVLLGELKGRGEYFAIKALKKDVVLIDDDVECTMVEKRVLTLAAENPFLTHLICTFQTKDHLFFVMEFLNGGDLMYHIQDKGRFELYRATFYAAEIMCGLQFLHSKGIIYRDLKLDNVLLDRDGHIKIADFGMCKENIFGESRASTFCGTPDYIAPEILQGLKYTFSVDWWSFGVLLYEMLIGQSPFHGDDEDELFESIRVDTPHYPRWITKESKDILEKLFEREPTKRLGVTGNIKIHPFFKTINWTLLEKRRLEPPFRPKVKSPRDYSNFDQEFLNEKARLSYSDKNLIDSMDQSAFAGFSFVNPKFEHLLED
protein kinase C eta, sequence (P24723 whole entry): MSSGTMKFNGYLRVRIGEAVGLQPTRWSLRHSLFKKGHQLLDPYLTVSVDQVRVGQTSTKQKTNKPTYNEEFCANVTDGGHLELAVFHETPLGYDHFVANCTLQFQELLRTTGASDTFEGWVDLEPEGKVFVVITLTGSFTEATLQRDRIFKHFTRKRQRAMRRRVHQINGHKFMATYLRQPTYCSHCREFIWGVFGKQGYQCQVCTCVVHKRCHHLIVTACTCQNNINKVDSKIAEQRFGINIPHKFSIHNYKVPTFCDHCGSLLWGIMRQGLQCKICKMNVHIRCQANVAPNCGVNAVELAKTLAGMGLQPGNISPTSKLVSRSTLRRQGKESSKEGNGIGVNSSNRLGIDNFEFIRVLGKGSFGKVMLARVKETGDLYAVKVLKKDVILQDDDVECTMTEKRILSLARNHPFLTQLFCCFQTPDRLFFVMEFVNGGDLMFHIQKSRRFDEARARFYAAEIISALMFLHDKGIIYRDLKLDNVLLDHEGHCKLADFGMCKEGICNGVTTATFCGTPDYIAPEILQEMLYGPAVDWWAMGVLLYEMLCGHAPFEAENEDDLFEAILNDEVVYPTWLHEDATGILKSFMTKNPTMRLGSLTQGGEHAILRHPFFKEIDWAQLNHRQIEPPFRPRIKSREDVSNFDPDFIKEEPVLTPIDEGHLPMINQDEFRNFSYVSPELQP
protein kinase C beta-2, sequence (P05771 1-673 isoform P05771-2): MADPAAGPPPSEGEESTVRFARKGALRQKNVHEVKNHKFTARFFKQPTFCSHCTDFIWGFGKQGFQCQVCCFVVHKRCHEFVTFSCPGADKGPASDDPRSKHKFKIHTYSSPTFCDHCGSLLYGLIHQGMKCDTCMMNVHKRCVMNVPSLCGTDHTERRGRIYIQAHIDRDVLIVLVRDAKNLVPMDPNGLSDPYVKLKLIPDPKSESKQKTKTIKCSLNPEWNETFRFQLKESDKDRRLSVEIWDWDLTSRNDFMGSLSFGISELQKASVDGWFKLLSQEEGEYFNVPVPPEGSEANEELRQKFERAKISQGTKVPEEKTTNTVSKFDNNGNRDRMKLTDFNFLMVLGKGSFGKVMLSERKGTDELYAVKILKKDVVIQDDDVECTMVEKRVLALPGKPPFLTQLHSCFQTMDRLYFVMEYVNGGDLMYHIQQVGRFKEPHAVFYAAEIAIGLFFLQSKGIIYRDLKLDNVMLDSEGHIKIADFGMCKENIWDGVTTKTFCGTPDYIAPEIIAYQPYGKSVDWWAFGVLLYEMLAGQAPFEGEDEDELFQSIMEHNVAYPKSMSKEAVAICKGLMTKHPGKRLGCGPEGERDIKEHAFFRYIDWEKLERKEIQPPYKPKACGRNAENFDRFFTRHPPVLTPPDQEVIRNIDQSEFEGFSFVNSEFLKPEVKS

SMILES	IC50 (protein kinase C alpha) [µM]	IC50 (protein kinase C beta-1) [µM]	IC50 (protein kinase C beta-2) [µM]	IC50 (protein kinase C gamma) [µM]	IC50 (protein kinase C delta) [µM]	IC50 (protein kinase C epsilon) [µM]	IC50 (protein kinase C zeta) [µM]	IC50 (protein kinase C eta) [µM]
Cn1cc(C2=C(c3cn(CCCCOC4CC(O)C(CN)O4)c4ccccc34)C(=O)NC2=O)c2ccccc21 (stereo not shown) [Example 54]	6.7	1.1	0.34	15	7.9	4.3	37	2.5
CC(=O)NCC1OC(OCCCCn2cc(C3=C(c4cn(C)c5ccccc45)C(=O)NC3=O)c3ccccc32)CC1OC(C)=O (stereo not shown) [Example 55]	2.3	0.26	0.05	4.2	0.95	6.6	45	1.2
Cn1cc(C2=C(c3cn(CCCCOC4C[C@H](O)[C@@H](CO)O4)c4ccccc34)C(=O)NC2=O)c2ccccc21 (stereo partly shown) [Example 56]	1.6	0.069	0.039	3.2	0.93	2.4	49	1.3
Cn1cc(C2=C(c3cn(CCO[C@@H]4C[C@H](O)[C@@H](CN=[N+]=[N-])O4)c4ccccc34)C(=O)NC2=O)c2ccccc21 [Example 58]	4.9	0.24	0.27	38	4.5	12	46	2.5
Cn1cc(C2=C(c3cn(CCOC4O[C@H](CO)[C@@H](O)[C@@H](N=[N+]=[N-])[C@H]4O)c4ccccc34)C(=O)NC2=O)c2ccccc21 (stereo partly shown) [Example 59]	4.5	0.2	0.11	9	2.8	31	48	1.6
Cn1cc(C2=C(c3cn(CCOC4O[C@H](CO)[C@@H](O)[C@@H](O)[C@H]4N=[N+]=[N-])c4ccccc34)C(=O)NC2=O)c2ccccc21 (stereo partly shown) [Example 60]	4.5	0.18	0.042	24	7.4	91	75	3.6
Cn1cc(C2=C(c3cn(CCOC4C[C@H](N=[N+]=[N-])[C@@H](CO)O4)c4ccccc34)C(=O)NC2=O)c2ccccc21 (stereo partly shown) [Example 61]	3.6	0.16	0.041	4.8	3.2	20	20	0.75
Cn1cc(C2=C(c3cn(CCOC4C[C@@H](N=[N+]=[N-])[C@@H](CO)O4)c4ccccc34)C(=O)NC2=O)c2ccccc21 (stereo partly shown) [Example 62]	4.4	0.2	0.1	5.2	3.9	42	41	2.6
Cn1cc(C2=C(c3cn(CCOC4C[C@H](N)[C@@H](CO)O4)c4ccccc34)C(=O)NC2=O)c2ccccc21 (stereo partly shown) [Example 63]	1.7	0.13	0.049	4	1.6	3.6	50	0.14
Cn1cc(C2=C(c3cn(C4CCOC4)c4ccccc34)C(=O)NC2=O)c2ccccc21 (stereo not shown) [Example 64]	0.16	0.005	0.005	0.28	0.16	0.8	50	0.04
Cn1cc(C2=C(c3cn(CCOC4O[C@H](CO)[C@@H](O)[C@@H](N)[C@H]4O)c4ccccc34)C(=O)NC2=O)c2ccccc21 (stereo partly shown) [Example 67]	6.6	0.3	0.2	8.2	4.1	38	47	2.6
